Tests used:
p95HER2 = p95HER2 (Homo sapiens, UniProt P04626); assay: Activation of gD-tagged p95HER2 in HBMECs, western blot; details: 5–10 μM, 24 h
Description: (§2) Cells were washed with cold PBS and lysed in a buffer containing 1% Triton, 50 mM Tris–HCl pH 8.8, 25 mM NaCl, 1 mM EDTA, 1 mM Na3VO4, 1 mM AEBSF, 10 μg·mL^−1 each of aprotinin/leupeptin/pepstatin or lysed in Laemmli buffer. Proteins were separated by SDS/PAGE and transferred to nitrocellulose (Schleicher & Schuell, Keene, NH, USA). Membranes were blocked for 1 h in TBS/0.1% Tween20/3% BSA and probed overnight with indicated antibodies. Peroxidase‐coupled secondary antibodies were used to reveal antibody binding using the ECL substrate (Pierce, Thermo Fisher Scientific, Waltham, MA, USA) and Fusion FX (Vilber Lourmat, Collégien, France) chemoluminescence acquisition system. Quantifications were done with IMAGEJ software (1.53e) (NIH, USA).
Vector encoding wild‐type glycoprotein D‐tagged form of HER2 (gD‐HER2‐WT) [18] was a kind gift of Dr M. Sliwkowski (Genentech, San Francisco, CA, USA). […] Vector encoding the HER2p95 [19] was provided by Dr J. Baselga.
(A–C) Lysates were then analyzed by western blot using antibodies against pY1248 HER2 and HER2. Representative blot and data quantification (mean ± SEM) are shown out of 3 (A), 3 (B), or 4 (C) independent experiments. One‐way ANOVA followed by Dunnett's multiple comparison test, *P < 0.05, **P < 0.01, ***P < 0.001.

NCI-N87 = assay: Anchorage-independent growth (spheroid assay, ULA plates), NCI-N87; type: cell-based, human; details: ebselen oxide 10 μM, lapatinib 10 nM, trastuzumab 10 μg·mL−1, alone or combined
Description: 5.10^3 cells/24‐well were seeded in a complete medium in ULA plates (Corning® Costar® (Corning, NY, USA) C LS3473‐24EA) in the presence of indicated compounds. Spheroids were imaged 6–8 days later with a phase‐contrast microscope, and their areas were measured using IMAGEJ software.
Proliferation was assessed overtime by Incucyte during 4 days. Data are mean ± SD (n = 8–12) of a representative experiment out of 4 (A), 3 (B), or 2 (C) independent experiments. One‐way ANOVA followed by Sidak multiple comparison test, (*, compared with Vehicle; ° and #, respectively, compared with lapatinib 10 and 1000 nM) ***P < 0.001, ****P < 0.0001. […] Proliferation was assessed by Incucyte during 4 days. Data are mean ± SD (n = 8–12) of a representative experiment out of two independent experiments. […] Images of a representative experiment out of 3 (G) or 4 (H) independent experiments and quantification of the colony total area are shown where data are mean ± SEM. One‐way ANOVA followed by multiple comparison test, *P < 0.05, **P < 0.01. Scale bars are 100 μM.

gD-HER2-EBM* = assay: Western blot of HBMECs overexpressing ERM-binding-motif mutant gD-HER2-EBM*; details: 5 μM, 24 h, HBMEC
Description: as §2
(G, H) Lysates from HBMECs transfected with vectors encoding gD‐tagged wild‐type HER2 (gD‐HER2‐WT) (G) or the mutant generated with alanine and glycine substitutions within the ERM‐binding motif (gD‐HER2‐EBM*) (H) and treated or not during 24 h with 5 μM ebselen oxide were analyzed by western blot using antibodies against activated HER2 (pY1248), HER2, activated ERK (pERK), and ERK. Representative blots and quantification of data are shown where data are mean ± sem [n = 3 (G); n = 2 (H)].

SKBR3 [1] = assay: MTT proliferation assay, SKBR3; type: cell-based, human; details: 10 μM
Description: (§1) Fig. 2 Ebselen oxide inhibits HER2 activation, cell proliferation, and anchorage‐independent growth of HER2^+ breast cancer cells. […] Blot and quantification of a representative experiment are shown out of 4 (A), 5 (B), or 2 (C) independent experiments. (D–F) Proliferation curves of HER2‐positive (SKBR3, D or BT474, E) or HER2‐negative (MDA‐MB‐231, F) breast cancer cell lines treated with vehicle or 10 μM ebselen oxide assessed by MTT assay. […] (G–I) Anchorage‐independent growth of SKBR3 (G), BT474 (H), or MDA‐MB‐231 (I) cells treated with vehicle or 10 μM ebselen oxide. […] Scale bars are […].

SKBR3 [2] = assay: Incucyte proliferation, single agents and combinations, SKBR3; type: cell-based; details: Homo sapiens, SK-BR-3, 96 h; read-out: Reduction/inhibition of cell proliferation
Description: (A–C) Proliferation curves of HER2‐positive (SKBR3, A; BT474, B; NCI‐N87, C) cancer cell lines treated or not with ebselen oxide (10 μM), lapatinib (10–1000 nM), or combination of these agents, as indicated. Proliferation was assessed overtime by Incucyte during 4 days. Data are mean ± SD (n = 8–12) of a representative experiment out of 4 (A), 3 (B), or 2 (C) independent experiments. […] Proliferation was assessed by Incucyte during 4 days. […] Scale bars are […].

[3] = system: BT474 cells implanted in the mammary fat pad; assay: Tumor growth in orthotopic BT474 xenograft in immunodeficient mice; type: in vivo; details: for Tumor size increase between day 19 and day 40: 5 days a week, vehicle 172%
Source text: Experiments were done as already described on the TrGET platform of centre de Recherche de Cancérologie de Marseille (Institut Paoli Calmettes, Marseille, France) in accordance with the guidelines of the Institut National de la Santé et de la Recherche Médicale. The study was approved by the Animal Experimentation Ethics Committee of Marseille (APAFIS#2079‐2015092811101360 v3). Briefly, 7‐to‐8‐week‐old female NOD.Cg‐Prkdc scid/J (NSG) mice were purchased from Charles River France or bred in‐house and maintained on a 12‐h light and 12‐h dark cycle, under specific pathogen‐free conditions with sterilized food and water provided ad libitum. The initial body weight of the animals at the time of arrival was between 19 and 24 g. Mice were allowed to acclimatize to local conditions for 1 week before being injected with tumor cells. 5 × 10^6 BT474 cells resuspended in 100 μL (50% matrigel and 50% PBS) were implanted orthotopically in the mammary fat pad of NSG mice anesthetized with ketamine and xylazine and administered with the nonsteroidal anti‐inflammatory drug metacam (SC, 1 mg·kg^−1). Estradiol pellets were implanted subcutaneously. Metacam was administered 24 and 48 h postimplantation. Nineteen days after implantation, mice were randomized into […] to be administered intraperitoneally during 3 weeks with vehicle (10% DMSO in PBS, twice a day, 5 days a week, n = 8), 3 mg·kg^−1 ebselen oxide (twice a day, 5 days a week, n = 8), or […] ebselen oxide (twice a day, 5 days a week, n = 8). Mice weight and tumor volume were assessed 2–3 times a week using a caliper. At the end of the experiment, the collected tumors were photographed, weighed, and cut into halves to be embedded in OCT for immunohistofluorescence analysis or frozen in liquid nitrogen for western blot analysis.
The collected tumors embedded in OCT were cut into 5 μm thick sections and immobilized on superfrost™ plus microscope slides. Sections were fixed in 4% paraformaldehyde for 10 min at room temperature, washed three times in PBS, permeabilized for 10 min in PBS containing 0.1% Triton X100, washed with PBS, blocked for 30 min in PBS containing 3% BSA and incubated 1 h at room temperature with primary antibodies [Monoclonal anti‐HER2 (clone Cle2‐4001 and 3B5, IF‐1 : 100) or polyclonal anti‐KI67 (ref PA5‐16785, IF‐1 : 200)]. Sections were again washed three times in PBS and incubated 1 h at room temperature with fluorescence‐conjugated secondary antibodies from Jackson Immunoresearch Laboratories. After mounting, samples were scanned using a Lamina multilabel slide scanner (PerkinElmer). The proliferative index (mean percentage of Ki67‐positive nuclei) was quantified on 10 regions (area 0.2 mm^2) per slide (vehicle, n = 7; ebselen oxide n = 5) using IMAGEJ software.
We then explored the potential of ebselen oxide to reduce the growth of HER2‐overexpressing tumors in vivo. Nineteen days after orthotopic implantation of BT474 cells in the mammary fat pad of immunodeficient […] mice, mice received 3 or 5 mg·kg^−1 ebselen oxide, intraperitoneally (once or twice a day, as indicated, 5 days a week) or vehicle as a control. […] Conversely, in animals treated with 5 mg·kg^−1 ebselen oxide, it increased only by 44% in mice treated with 5 mg·kg^−1 ebselen oxide, corresponding to a significant growth inhibition index of 75% at day 40 (Fig. 5C–E). […] Of note, there was an excellent correlation between tumor volume and tumor weight (R ^2 = 0.9611, Fig. 5H). […] We next analyzed biochemically the intratumoral level of activated HER2 and downstream signaling in vehicle‐ and 5 mg·kg^−1 ebselen oxide‐treated mice.

MDA-MB-231 = assay: MTT proliferation assay, MDA-MB-231; type: cell-based, human; details: 10 μM
Description: as §1

SKOV3 = assay: Proliferation of SKOV3 cells; type: cell-based, human; details: ebselen oxide 7–10 μM, AG1478 5 μM
BT474 = assay: Soft agar anchorage-independent growth, BT474; type: cell-based, human; details: 10 μM
Description: A bottom layer of 0.8% agarose in DMEM supplemented with 20% FBS and penicillin/streptomycin was added to 24‐well plates before seeding 25.10^3 cells per well in a 0.6% agarose top layer. Cells were treated with a vehicle or with 10 μM ebselen oxide or derivatives. Treatments were renewed 3 times a week. After 6 weeks, colonies were visualized with a phase‐contrast microscope and their number and size were quantified using IMAGEJ software.
as §1

Sequence of p95HER2 (P04626 611-1255 limits assumed): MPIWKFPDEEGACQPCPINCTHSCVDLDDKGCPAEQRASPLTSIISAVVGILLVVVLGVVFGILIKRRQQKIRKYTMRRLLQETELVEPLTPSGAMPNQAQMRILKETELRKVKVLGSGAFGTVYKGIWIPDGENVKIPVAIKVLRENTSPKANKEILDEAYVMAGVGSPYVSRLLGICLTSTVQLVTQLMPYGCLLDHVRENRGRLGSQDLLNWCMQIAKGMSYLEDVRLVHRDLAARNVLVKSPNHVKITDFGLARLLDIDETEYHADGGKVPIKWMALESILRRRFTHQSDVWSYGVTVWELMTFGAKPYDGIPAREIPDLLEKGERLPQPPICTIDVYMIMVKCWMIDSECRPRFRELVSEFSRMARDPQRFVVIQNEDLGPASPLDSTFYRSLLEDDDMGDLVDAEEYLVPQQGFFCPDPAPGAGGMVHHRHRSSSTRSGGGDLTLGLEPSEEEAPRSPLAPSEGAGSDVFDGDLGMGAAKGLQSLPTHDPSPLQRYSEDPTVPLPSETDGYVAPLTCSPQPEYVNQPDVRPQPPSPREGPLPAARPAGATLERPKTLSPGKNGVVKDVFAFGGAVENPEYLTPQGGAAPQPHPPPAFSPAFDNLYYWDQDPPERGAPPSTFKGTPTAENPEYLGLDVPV

O=C1c2ccccc2[Se](=O)N1c1ccccc1 (stereo not drawn) [Ebselen oxide, ebselen oxide]
Inhibition of p95HER2 activation (p95HER2): strongly inhibited | Reduction of anchorage-independent growth (spheroid assay) (NCI-N87): 23% | Downstream activation of ERK induced by gD-HER2-EBM* overexpression (gD-HER2-EBM*): did not reduce | Phosphorylation of gD-HER2-EBM* (gD-HER2-EBM*): did not reduce | Reduction of proliferation rate (SKBR3 [1]): 35% | inhibition at 10 µM (SKBR3 [2]): 64% | Tumor size increase between day 19 and day 40 ([3]; 3 mg·kg−1 i.p.): 112% | Reduction in tumor size and weight compared to vehicle ([3]; 3 mg·kg−1 i.p., day 40): only a little reduction | Drop of tumor proliferation index (Ki67) vs vehicle ([3]; 5 mg·kg−1, immunofluorescence on tumor sections): 32% | Decrease of HER2 activation in tumor lysates vs vehicle ([3]; 5 mg·kg−1, western blot): 30% | Inhibition of Akt activation in tumor lysates ([3]; 5 mg·kg−1, western blot): 50% | Inhibition of ERK activation in tumor lysates ([3]; 5 mg·kg−1, western blot): 45% | Tumor size increase between day 19 and day 40 ([3]; 5 mg·kg−1 i.p.): 44% | Growth inhibition index ([3]; 5 mg·kg−1 i.p., day 40): 75% | Drop in tumor weight compared to vehicle-treated group ([3]; 5 mg·kg−1 i.p., tumors collected at day 40): 40% | Mice body weight after day 30 ([3]; 3 and 5 mg·kg−1, recovered after reduction from two to one injection per day): decrease of mice body weight | Tolerability (mice body weight) ([3]; 3 and 5 mg·kg−1 i.p. twice a day): well‐tolerated until day 30 | Decrease in the mammary tumor volume (discussion) ([3]; mouse model, ebselen oxide administration): 40% | Effect on proliferation rate (MDA-MB-231): did not reduce | Effect on proliferation (SKOV3): reduced proliferation | Reduction in the size of micro-colonies (BT474): > 50%

Source: paper PMC10552892, “Ebselen oxide and derivatives are new allosteric HER2 inhibitors for HER2‐positive cancers” (Molecular Oncology, 2023)
